One data set concerns mL9.5 (SEQ. ID. NO. 21). As to the kind of experiment: Fluorogen activation by purified monomeric FAP mL9.5 (spectra). Type of data set: biochemical. Particulars: purified protein, about 300 nM fluorogen, PBS pH 7.4. The text has this:
While the peptide linker that joins the VL units in dL9.2 (SEQ. ID. NO. 2) and dL9.5 (SEQ. ID. NO. 3) enhance fluorogen binding affinity and binding rate by reducing the entropic cost of assembly around the fluorogen, the linker is not strictly necessary for fluorogenic activation. […] In panels C and D, corresponding spectra from mL9.5:SKC602 (SEQ. ID. NO. 21:SKC602) and mL9.5:SKC728 (SEQ. ID. NO. 21:SKC728) fluoromodules are shown. Spectra were obtained using a Quantamaster™ fluorometer (PTI) equipped with dual monochromators on both excitation and emission light paths.
To facilitate ligase-dependent cloning methods, the above procedure was repeated for dL9.5 (SEQ. ID. NO. 6), using otherwise identical primers that appended BspEI (TCCGGA) (SEQ. ID. NO. 25) and BamHI (GGATCC) (SEQ. ID. NO. 26) sites directly at the 5′ and 3′ termini, respectively, of the dL9.5 gene (SEQ. ID. NO. 6). The resulting plasmid, designated pPNL9z-dL9.5, could be digested with BspEI (SEQ. ID. NO. 25) and BamHI (SEQ. ID. NO. 26) to produce a yeast expression vector backbone capable of receiving inserts with like-digested termini. […]

The subject of data set [1] is HEK293 cells expressing dL9.5. Nature of the data set: Confocal imaging of HEK293 cells expressing dL9.5 in various cellular contexts. Particulars: HEK293; SKC728 100 nM, SKC602 50 nM. The class given is cell-based. An excerpt:
The expressed construct was imaged using an Andor Revolution XD spinning disk confocal (GFP 488:525/50, dL9.5 (SEQ. ID. NO. 3) 640:685/70 AND 640:794/160, 60×1.49 NA oil immersion objective) and the results are shown in FIG. 5. […] The fluorogen was not washed away prior to imaging.
Imaging conditions were similar to those described for obtaining FIG. 5.
CYTOPLASM. HEK293 cells were transfected with, and stably expressing the pCYdL9.5eGFP vector, were thawed from a cryostock and maintained in DMEM/10% FBS for four passages prior to fluorescence imaging procedures. Immediately prior to imaging, growth media was exchanged for HBSS (pH 7.4) supplemented with SKC602 (200 nM final concentration). The cells were allowed to recover at 37° C. with 5% CO2 for 20-30 minutes, and fluoromodule activity under in vivo conditions within the cytoplasm was imaged using an Andor Revolution XD spinning disk confocal microscope (60×1.49 NA oil immersion objective, excitation at 640 nm, emission in far-red: 685/70 filter, and NIR: 794/160 filter). The same cells were also imaged for eGFP activity (excitation at 488 nm, emission via 525/50 nm filter). […] In accordance with the fluoromodule emission spectrum shown in FIG. 2, this emission filter allows the microscope camera to detect a large portion of the fluoromodule emission, and consequently, the observed signal appears brighter. One must note that intensities cannot be directly compared between channels, due to considerations non-exclusively including: differences in excitation light intensities, exposure and capture times, the transmission profile of each emission filter, and the quantum efficiency of the iXON3 DU897 (back-illuminated) camera across the range of emitted wavelengths. An evenly distributed fluorescence signal is observed in these cells, with no bright foci that would indicate protein aggregation, and the fluoromodule signal intensity scales with that of eGFP.
PLASMA MEMBRANE. […]

With `CN(C)c1ccc(/C=C/C(=C2C=CC(=[N+](C)C)C=C2)c2ccc(N(C)C)cc2)cc1` [SKC602, (E)-N-(4-(1,3-bis(4-(dimethylamino)phenyl)allylidene)cyclohexa-2,5-dien-1-ylidene)-N-methylmethanaminium], in the data set on mL9.5 (SEQ. ID. NO. 21), the “Induction of NIR fluorescence by mL9.5” value is “induce NIR fluorescence”. Moreover, the “Membrane permeance shown by subcellular labeling (plasma membrane exterior / mitochondrial matrix)” value in data set [1] is recorded as “membrane permeant”.

Regarding `CN(C)c1ccc(C(/C=C/c2ccc(N(C)CCCCC(=O)NC(CCS(=O)(=O)O)C(=O)O)cc2)=C2C=CC(=[N+](C)C)C=C2)cc1` (stereo not shown) [SKC728], in the data set with mL9.5 (SEQ. ID. NO. 21), the “Induction of NIR fluorescence by mL9.5” value is “induce NIR fluorescence”. Further, the “Membrane permeance shown by subcellular labeling (plasma membrane exterior / mitochondrial matrix)” value in data set [1] is “membrane impermeant”.
